Test results taken from US10016430B2, “1-[2-(aminomethyl)benzyl]-2-thioxo-1,2,3,5-tetrahydro-4H-pyrrolo[3,2-d]pyrimidin-4-ones as inhibitors of myeloperoxidase” (AstraZeneca AB, priority 2014, dated 2018).

Target: activated MPO (Homo sapiens (Human), UniProt P05164)
Assay: Urate production by activated MPO incubated with xanthine, LC-MS
Assay type: biochemical
Conditions: activated MPO incubated with xanthine and titrated compound for 80 min, FIG. 3
Excerpt: The dotted line represents the urate formed in the presence of unactivated MPO.
We postulate that tissue hypoxia, the degree of which will be determined by the degree of inflammation and vascular function, has impact on plasma urate concentration. Myocardial ischemia results in accelerated loss of ATP and a corresponding buildup of urate levels in rat hearts (Am. J. Physiol. Heart Circ. Physiol., 2004, 286, H677-H684; J. Biol. Chem., 1995, 270, 18797-18803). Furthermore, increased myocardial production of urate contributes to systemic urate levels and correlates to NYHA class in heart failure patients (Circ. J., 2006, 70, 1006-1011).

Sequence of activated MPO (P05164 49-745): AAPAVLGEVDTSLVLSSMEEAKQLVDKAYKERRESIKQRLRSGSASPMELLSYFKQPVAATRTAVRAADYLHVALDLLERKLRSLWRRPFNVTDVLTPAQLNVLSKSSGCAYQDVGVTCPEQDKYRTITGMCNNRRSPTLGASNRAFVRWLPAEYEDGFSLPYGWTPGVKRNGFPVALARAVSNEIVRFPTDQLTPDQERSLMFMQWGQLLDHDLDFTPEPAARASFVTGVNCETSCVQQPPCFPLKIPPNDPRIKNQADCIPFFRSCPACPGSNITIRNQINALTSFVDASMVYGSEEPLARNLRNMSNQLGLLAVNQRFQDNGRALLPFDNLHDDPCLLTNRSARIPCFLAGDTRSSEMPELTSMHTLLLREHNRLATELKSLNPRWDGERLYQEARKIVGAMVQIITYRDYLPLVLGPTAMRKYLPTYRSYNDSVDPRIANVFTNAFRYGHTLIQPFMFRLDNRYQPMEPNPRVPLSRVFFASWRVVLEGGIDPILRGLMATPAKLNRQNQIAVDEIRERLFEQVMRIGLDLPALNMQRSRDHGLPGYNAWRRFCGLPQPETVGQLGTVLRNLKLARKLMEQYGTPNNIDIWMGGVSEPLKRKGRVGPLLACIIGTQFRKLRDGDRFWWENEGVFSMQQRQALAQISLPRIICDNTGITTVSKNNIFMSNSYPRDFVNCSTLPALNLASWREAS

Inhibition of urate production by activated MPO: concentration-dependently inhibited
SMILES: C[C@@H](N)c1cc(Cl)ccc1Cn1c(=S)[nH]c(=O)c2[nH]ccc21 [Example 3, 1-{2-[(1R)-1-Aminoethyl]-4-chlorobenzyl}-2-thioxo-1,2,3,5-tetrahydro-4H-pyrrolo[3,2-d]pyrimidin-4-one]
